The subject of assay [1] is hESCs. Nature of the assay: Neural induction of hESC under adherent conditions, PAX6 expression. In kind it is cell-based, human. Conditions: 10 uM to 30 nM, each added to 10 uM of SB431542. Here is the method:
The inventors contemplated that establishing an even cell distribution is critical for inducing homogenous neural differentiation of hESCs. To this end, undifferentiated hESC were dissociated into single cells and re-plated onto Matrigel coated dishes in conditioned medium supplement with ROCK inhibitor, Y-27632 (Wananabe et at, 2007). After 72 hours cells were switched from hESC conditions to knock-out serum replacement medium (KSR) containing either Noggin, SB4315242, or both factors and allowed to differentiate for a total of 11 days (FIG. 1.a.). […] Neural induction was monitored by expression of PAX6, an early marker of neuroectodermal differentiation ([…], et al., Annu Rev Neurosci 20:483 (1997). As an alternative to the specific Smad inhibitors used here, it is possible to block both distinct Smad pathways using alternative inhibitors or mechanisms. Dorsomorphin is a small molecule alternative to Noggin, targeting the same pathway. Concentrations ranged from 10 uM to 30 nM, each individual amount added to 10 uM of SB431542. […] Quantitative Real-Time (Dual SMAD). […] For each sample, 1 ug of total RNA was treated for DNA contamination and reverse transcribed using the Quantitect RT kit (Qiagen). Amplified material was detected using Quantitect SYBR green probes and PCR kit (Qiagen) on a Mastercycler RealPlex2 (Eppendorf). […]

In assay [2] the test system is NSB derived neural precursor cells. Briefly: Conditioned media patterning of naive neural progenitor cells, qRT-PCR. Format: cell-based, human. From the text: The FP has important functional roles during development in neural patterning and axonal path finding (Jessell, 2000). To assess the functional properties of hESCs derived FP conditioned media was isolated at days 9 and 11 and tested for expression of Netrin-1 in the medium using ELISA (FIG. 3A). Under normal NSB conditions, Netrin-1 is detectable at Day 9 and decreases at Day 11 while in the NSB+SHH condition, there is a 3.5 fold increase in Netrin-1 levels, increasing at Day 11 (FIG. 3B). SHH is a critical patterning factor secreted by FP cells and specifying ventral cell types in a dose-dependent manner. To test if hESCs derived FP secretes factors that can specify ventral precursor domains, conditioned media (CM) was isolated at Days 9 and 11 of the differentiation. At Day 6, exogenous SHH was removed and cultures were washed to eliminate any exogenously added SHH from the medium. Naïve neural progenitor cells were isolated at Day 11 of the control (NSB) protocol and cultured with either NSB CM or FP CM. After Day 5 of culture in the presence of CM, the inventors probed for the expression of ventral precursor markers and expression of the SHH responsive gene GLI2. […] Increase in the expression of ventral markers was confirmed at the level of protein (FIG. 3C′).
A general note: In qPCR the cycle at which signal appears reflects the starting amount.

The next assay concerns DKK-1. Briefly: DKK-1 transcript (qPCR) and protein in medium (ELISA). In kind it is cell-based, human. The conditions noted are these: as early as 2 days post treatment.
Assay [3] relates to hESCs. Briefly: Floor plate induction in NSB protocol, FOXA2 immunostaining. In kind it is cell-based, human. Conditions: NSB protocol. The procedure:
(§1) For MS5 induction, established methods previously reported were used (Perrier et al., 2004). Feeder free neural induction was carried out as previously described (Chambers et al., 2009). Briefly, hESCs cultures were disaggregated using accutase for 20 minutes, washed using hESCs media and pre-plated on gelatin for 1 hour at 37° C. in the presence of ROCK inhibitor to remove MEFs. The nonadherent hESCs were washed and plated on matrigel at a density of 20,000 cells/cm2 on matrigel (BD) coated dishes in MEF conditioned hESCs media (CM) spiked with 10 ng/mL of FGF-2 and ROCK-inhibitor. The ROCK inhibitor was withdrawn, and hESCs were allowed to expand in CM for 3 days or until they were nearly confluent. The initial differentiation media conditions included knock out serum replacement (KSR) media with […] TGF-b inhibitor (SB431542, Tocris) and 500 ng/mL of Noggin (R&D). Upon day 5 of differentiation, increasing amounts of N2 media (25%, 50%, 75%) was added to the KSR media every two days while maintaining 500 ng/mL of Noggin and TGF-b inhibitor. For FP induction, Sonic C25II was added at 200 ng/ml.
Tissue was fixed using 4% paraformaldehyde and Picric acid for 15 minutes, washed with PBS, permeablized using 0.3% Triton X in PBS, and blocked using 10% Donkey Serum. Primary antibodies used for microscopy included PAX6 (Covance), TUJ1 (Covance), ZO1 (Zymed), BF1 (FOXG1, gift E.Lai), TH (Pelfreez), NKX6.1 (DSHB) and FOXA2 (SantaCruz).
Using this protocol, in combination with compositions and methods of the present inventions, the inventors aimed to optimize FP differentiation by adding Sonic C25II at different time points during neural induction and assaying for FOXA2 expression. Differentiation was initiated upon NSB exposure, and Sonic C25II was added at Day 1, Day 3, Day 5, or Day 7 (FIG. 2A).

Assay [4] relates to hESCs. Briefly: qRT-PCR of FP, AN and regional markers during FP induction. Format: cell-based, human. Here is the method: as §1
Total RNA was extracted using an RNeasy kit (Qiagen). For each sample, 1 ug of total RNA was treated for DNA contamination and reverse transcribed using the Superscript III (Invitrogen). Amplified material was detected using Taqman probes and PCR mix (ABI) on a Mastercycler RealPlex2 (Eppendorf). All results were normalized to a HPRT control and are from 3 technical replicates of 3 independent biological samples at each data point.
FOXA2 is a key marker of FP development. However, FOXA2 is also highly expressed in the endoderm. To further characterize the hESC derived putative FP tissue, the inventors performed qRT-PCR analyses for candidate markers at Day 11. […] The inventors further characterized the nature of FOXA2+ putative FP cells using a panel of neural precursor, glial, neuronal and non-neural markers (FIG. 7). […] To distinguish FOXA2 expression in hESC derived FP versus endoderm tissue, the inventors differentiated hESCs to endoderm (D'Amour et al., 2005).
To gain further insight into the factors critical for human FP specification, high resolution temporal gene expression profiles of candidate markers were performed at 6 time points during the 11 day protocol.
The inventors contemplated the use of SIX6 as a putative marker of anterior FP identity. Thus SIX6 status of the hESC derived FP was used to mark respecification in response to known caudalizing agents such as FGF8, Wnt-1, and Retinoic Acid. Each of these caudalizing factors was added in combination with SHH and the resulting tissue was assessed for expression of the FP markers FOXA2 and NETRIN-1, the AN marker BF1, and putative anterior FP marker SIX6.

The test system of assay [5] is rosette-stage neural cells. Nature of the assay: Floor plate induction in stromal-feeder (MS5) derived / rosette-stage neural cells. Format: cell-based, human. The procedure: as §1
hESC derived neural cells at the rosette stage were differentiated into both CNS and PNS progeny and patterned towards multiple cells fates along the A/P and D/V axis (Elkabetz et al., 2008). […] Specification of progenitor cells into FP tissue and cells during mouse development was thought to depend on SHH signaling within early neural lineages. The inventors tested whether rosette-stage neural cells were competent to undergo FP specification in response to SHH. High concentrations of SHH were needed to induce FP during mouse development (Roelink et al., 1994; Ericson et al., 1996). Recombinant N-terminal SHH has a limited activity range due to the lack of posttranslational modifications required for full SHH action. Recently, a modified version of recombinant SHH became available where SHH was tethered to two Isoleucines (Sonic C25II, R&D Systems), mimicking more closely the potency of mammalian SHH protein.
The majority of cells retained rosette cytoarchitecture and staining for the AN marker BF1 as described previously (FIG. 1A) (Elkabetz et al., 2008).
Based on the hypothesis that FP specification in the mouse occurs at early developmental stages, at the time of or prior to neural induction, the inventors repeated SHH induction studies at Day 9, the time of rosette specification, using classic stromal-feeder mediated neural induction protocols (Elkabetz et al., 2008). Under this paradigm the inventors noticed a drastic change in cell morphology restricted to the cells treated with SHH-C25II (FIG. 1B).

The conditions of assay [6]: most functional assays; cited from earlier work.
The test system of assay [7] is hESCs. Nature of the assay: Placode induction from hESC (Six1 immunocytochemistry, qRT-PCR). In kind it is cell-based, human. Conditions: early addition to SB431542 (1 μM) treated hESCs. From the text: Sensory placodes are developmental structures formed at the interface of early neuroectodermal and non-neural ectoderm tissue. To address whether the N-SB culture system is suitable for the derivation of placodal cells, The inventors first established a set of markers to identify placode identity in human embryonic stem cells (hESCs)-derived cultures. From studies in other model organisms, The inventors postulated a number of candidate markers to identify human placodal precursor during hESC differentiation including member of the Six, Eya, and Dlx family of transcription factors. Six1 marks the pre-placodal region and placodal cells in model organisms but is also expressed in skeletal muscle precursors.
276(1): p. 1-15, herein incorporated by reference. To test whether addition of exogenous BMPs enhances the derivation of Six1+ cells, The inventors exposed SB431542 (1 μM) treated hESCs to various concentration of BMP4. […] 27(3): p. 275-80; Xu, et al., Nat Biotechnol, 2002. 20(12): p. 1261-4, herein incorporated by reference.
We next explored whether simple withdrawal of the BMP inhibitor noggin during N-SB differentiation may enhance the emergence of placodal fates by de-repressing endogenous BMP signaling. […]

Results on four molecules are retold here after patent US11560546B2, “Methods for neural conversion of human embryonic stem cells” (MEMORIAL SLOAN KETTERING CANCER CENTER, priority 2009, dated 2023).

Where a name gives a salt, the structure may show the parent alone.

As to `c1cc(-c2cnn3cc(-c4ccc(OCCN5CCCCC5)cc4)cnc23)ccn1` [Dorsomorphin, 6-[4-[2-(1-Piperidinyl)ethoxy]phenyl]-3-(4-pyridinyl)-pyrazolo[1,5-a]pyrimidine dihydrochloride], the “efficiency of neural induction based on the percentage of PAX6+ cells” value in the assay with hESCs [1] is reported as “not as high as used with Noggin/SB431542”.
Regarding `CC1=C2C[C@H]3[C@@H](CC=C4C[C@@H](O)CC[C@@]43C)[C@@H]2CC[C@]12O[C@@H]1C[C@H](C)CN[C@H]1[C@H]2C` [cyclopamine], in assay [2], the “NKX2.1, NKX6.1 and GLI2 expression induced by FP conditioned media” value is listed as “significantly reduced”.
On to “Sonic C25II: modified recombinant SHH tethered to two Isoleucines (R&D Systems); 'SHH' in FP induction examples, added at 200 ng/ml”, for which the “DKK-1 mRNA and protein levels” value in the assay with DKK-1 is “drastic reduction”. For the same molecule, the “FOXA2 yield with extended treatment beyond Day 11” value in the assay with hESCs [3] is given as “did not increase FOXA2 yield”. The “FOXA2+ cells (of total cells)” value in the assay on hESCs [3] (added starting at day 1) is “about 65%”. Besides, the “increase in SIX6 mRNA levels” value in the assay with hESCs [4] (Day 5 of differentiation, FP induction versus NSB control) is given as “About 50,000 fold”. For the same molecule, in the assay on hESCs [4] (day 7, versus NSB), the “PAX6 and BF1 expression” value is “drastic reduction in PAX6 and BF1”. The “concentrations achieving induction of FOXA2+ cells and decrease in BF1 and PAX6” value in assay [5] (added at Day 9, stromal-feeder neural induction) was in the range of 125 to 500 ng/mL. Moreover, the “induction of FOXA2+ cells” value in assay [5] (added at Day 9, stromal-feeder neural induction, Day 21) is “robust upregulation of FOXA2+”. Besides, the “FP marker (FOXA2) expression on established rosette-stage neural cells” value in assay [5] (dose-response, added at Day 15) is given as “did not yield cells expressing FP markers”. The “potency relative to non-modified N-terminal SHH” value in assay [6] is given as about 10 times.

B1: BMP4: bone morphogenetic protein-4, exogenous BMP (protein, UniProt P12644 293-408, looked up)
Bone morphogenetic protein 4: SPKHHSQRARKKNKNCRRHSLYVDFSDVGWNDWIVAPPGYQAFYCHGDCPFPLADHLNSTNHAIVQTLVNSVNSSIPKACCVPTELSAISMLYLDEYDKVVLKNYQEMVVEGCGCR
For the molecule B1, the “cdx2 induction / trophoectodermal differentiation” value in the assay on hESCs [7] is given as “induction of cdx2”.
